Data reported in patent publication US8546380B2, “Aminodihydrothiazine derivatives” (Shionogi & Co., Ltd., priority 2005, dated 2013).

The compounds below were run against recombinant human BACE-1 protein (Homo sapiens (Human), UniProt P56817) (assay: Measurement of Inhibition of β-Secretase Activity). Conditions: fluorescence-quenched peptide substrate 18 nM, BACE-1 7.4 nM, 3 h at 30° C., pH5.0; read-out: IC50 value.
Type: biochemical
Experimental: Zero point five μL of the test compounds (dissolved in N,N′-dimethylsulfoxide) were incubated with 48.5 μL of the fluorescence-quenched peptide substrate solution (Biotin-XSEVNLDAEFRHDSGC-Eu:X=ε-amino-n-capronic acid, Eu=Europium cryptate) and 1 μL of recombinant human BACE-1 protein (R&D systems) for 3 h at 30° C. in the 96 well half-area plate (black color plate, Costar). The substrate peptide was synthesized by reacting with Biotin-XSEVNLDAEFRHDSGC (Peptide Institute) and Cryptate TBPCOOH mono SMP (CIS bio international). […] The enzymatic reaction was performed in sodium acetate buffer (50 mM sodium acetate (pH5.0), 0.008% Triton X-100). After the reaction, a 50 μL of 8.0 μg/mL Streptavidin-XL665 (CIS bio international) dissolved in phosphate buffer (150 mM K2HPO4—KH2PO4 (pH 7.0), 0.008% Triton X-100, 0.8 M KF) was add to each well and incubated for 1 h at 30° C.

Sequence of recombinant human BACE-1 protein (P56817 46-501): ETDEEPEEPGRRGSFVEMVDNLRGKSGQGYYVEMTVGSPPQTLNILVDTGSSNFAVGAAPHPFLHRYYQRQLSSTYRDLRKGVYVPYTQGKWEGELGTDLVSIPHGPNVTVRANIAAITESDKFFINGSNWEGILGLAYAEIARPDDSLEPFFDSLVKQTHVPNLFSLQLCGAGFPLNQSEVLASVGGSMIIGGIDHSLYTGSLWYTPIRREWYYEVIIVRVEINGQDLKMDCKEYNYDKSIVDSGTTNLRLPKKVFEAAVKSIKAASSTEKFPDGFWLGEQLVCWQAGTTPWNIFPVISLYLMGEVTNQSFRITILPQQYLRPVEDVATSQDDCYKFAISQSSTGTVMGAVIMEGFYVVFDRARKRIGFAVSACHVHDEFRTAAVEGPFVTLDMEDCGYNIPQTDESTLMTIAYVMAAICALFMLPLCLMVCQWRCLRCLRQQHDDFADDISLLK

SMILES	IC50
CNc1nc(OC)cnc1C(=O)Nc1cccc(C2(C)CCSC(N)=N2)c1 (stereo not drawn) [Compound 353]	< 100 µM
CC1(c2cccc(NC(=O)C(=O)Nc3ccc(Cl)cc3)c2)CCSC(N)=N1 (stereo not drawn) [Compound 361]	< 100 µM
CC1(c2cccc(NC(=O)c3cncs3)c2)CCSC(N)=N1 (stereo not drawn) [Compound 791]	< 100 µM
CC1(c2cccc(OCC(=O)Nc3cccc(Oc4ccccc4)c3)c2)CCSC(N)=N1 (stereo not drawn) [Compound 1007]	< 100 µM
CC1(c2cccc(NC(=O)c3cnc(N)cn3)c2)CCSC(N)=N1 (stereo not drawn) [Compound 1265]	< 100 µM
CC1(c2cccc(NC(=O)C(=O)Nc3ccccc3)c2)CCSC(N)=N1 (stereo not drawn) [Compound 1147]	< 100 µM
CC1(c2cccc(OCC(=O)Nc3ccc(-n4cnc(Cl)c4Cl)cc3)c2)CCSC(N)=N1 (stereo not drawn) [Compound 106]	< 100 µM
CC1(c2cccc(NC(=O)c3ccc(F)c(O)c3)c2)CCSC(N)=N1 (stereo not drawn) [Compound 469]	< 100 µM
CC1(c2cccc(NC(=O)Nc3ccc(Cl)cc3)c2)CCSC(N)=N1 (stereo not drawn) [Compound 181]	< 100 µM
CC1(c2cccc(NC(=O)c3cnc(N4CCCC4)cn3)c2)CCSC(N)=N1 (stereo not drawn) [Compound 1271]	< 100 µM
COc1cnc(C(=O)Nc2cccc(C3(C)CCSC(N)=N3)c2)c(OC)n1 (stereo not drawn) [Compound 984]	< 100 µM
CC1(c2cccc(NC(=O)CCNC(=O)c3ccc(Cl)cn3)c2)CCSC(N)=N1 (stereo not drawn) [Compound 134]	< 100 µM
CC1(c2cccc(NC(=O)CCc3ccccc3)c2)CCSC(N)=N1 (stereo not drawn) [Compound 808]	< 100 µM
Cc1ccc(F)c(C(=O)Nc2cccc(C3(C)CCSC(N)=N3)c2)c1 (stereo not drawn) [Compound 373]	< 100 µM
CC1(c2cccc(NC(=O)c3ccc(Cl)cc3F)c2)CCSC(N)=N1 (stereo not drawn) [Compound 378]	< 100 µM
CC1(c2cc(F)cc(NC(=O)c3ncccc3C(N)=O)c2)CCSC(N)=N1 (stereo not drawn) [Compound 947]	< 100 µM
CC1(c2ccc(C(=O)NCc3cccc(Cl)c3)cc2)CCSC(N)=N1 (stereo not drawn) [Compound 363]	< 100 µM
CC1(c2cc(Br)cc(NC(=O)c3ccco3)c2)CCSC(N)=N1 (stereo not drawn) [Compound 370]	< 100 µM
CC1(c2cccc(NC(=O)c3ncc(C(F)(F)F)cc3Cl)c2)CCSC(N)=N1 (stereo not drawn) [Compound 482]	< 100 µM
CC1(c2cccc(NCc3ccccc3)c2)CCSC(N)=N1 (stereo not drawn) [Compound 357]	< 100 µM
COc1cnc(C(=O)Nc2cccc(C3(C)CCSC(N)=N3)c2)c(C)c1 (stereo not drawn) [Compound 1211]	< 100 µM
CC1(c2cccc(OCC(=O)Nc3ccc(C(F)(F)F)cc3)c2)CCSC(N)=N1 (stereo not drawn) [Compound 105]	< 100 µM
COc1ccc(C(=O)Nc2cccc(C3(C)CCSC(N)=N3)c2)c(OC)n1 (stereo not drawn) [Compound 467]	< 100 µM
CC1(c2cccc(NC(=O)c3ccc4c(c3)OCO4)c2)CCSC(N)=N1 (stereo not drawn) [Compound 796]	< 100 µM
CC1(c2cccc(/C=C/C(=O)Nc3ccc(F)cc3)c2)CCSC(N)=N1 (stereo not drawn) [Compound 415]	< 100 µM

SMILES	IC50
COc1ccc(C2(C)CCSC(N)=N2)cc1C(=O)Nc1ccc(Cl)cn1 (stereo not drawn) [Compound 186]	< 100 µM
CC1(c2cccc(NC(=O)c3cc(F)c(Cl)cc3F)c2)CCSC(N)=N1 (stereo not drawn) [Compound 35]	< 100 µM
COc1cnc(C(=S)Nc2cccc(C3(C)CCSC(N)=N3)c2)cn1 (stereo not drawn) [Compound 1270]	< 100 µM
Cc1cc(C(=O)Nc2cccc(C3(C)CCSC(N)=N3)c2)ccc1Cl (stereo not drawn) [Compound 172]	< 100 µM
Cn1nc(C(=O)Nc2cccc(C3(C)CCSC(N)=N3)c2)cc1CO (stereo not drawn) [Compound 358]	< 100 µM
CC1(c2cccc(NC(=O)c3ccc(O)cc3)c2)CCSC(N)=N1 (stereo not drawn) [Compound 1174]	< 100 µM
Cc1ccc(C(=O)Nc2cccc(C3(C)CCSC(N)=N3)c2)cc1 (stereo not drawn) [Compound 550]	< 100 µM
CC1(c2cccc(OCC(=O)Nc3ccc(OC(F)(F)F)cc3)c2)CCSC(N)=N1 (stereo not drawn) [Compound 326]	< 100 µM
Cc1ccc(C(=O)Nc2cc(Br)cc(C3(C)CCSC(N)=N3)c2)cc1 (stereo not drawn) [Compound 971]	< 100 µM
CC1(c2cccc(OCC(=O)Nc3nccs3)c2)CCSC(N)=N1 (stereo not drawn) [Compound 824]	< 100 µM
Cc1noc(C)c1C(=O)Nc1cccc(C2(C)CCSC(N)=N2)c1 (stereo not drawn) [Compound 491]	< 100 µM
Cc1ccc(S(=O)(=O)Nc2cc(Br)cc(C3(C)CCSC(N)=N3)c2)cc1 (stereo not drawn) [Compound 1172]	< 100 µM
CC1(c2cccc(OCC(=O)Nc3ccc4c(c3)CCC4)c2)CCSC(N)=N1 (stereo not drawn) [Compound 1164]	< 100 µM
CC1(c2cccc(NCCc3ccccc3)c2)CCSC(N)=N1 (stereo not drawn) [Compound 409]	< 100 µM
COc1ccc(NC(=O)COc2cccc(C3(C)CCSC(N)=N3)c2)cc1F (stereo not drawn) [Compound 322]	< 100 µM
CC1(c2cccc(NC(=O)c3cc(CO)on3)c2)CCSC(N)=N1 (stereo not drawn) [Compound 894]	< 100 µM
CC(=O)Nc1ccc(C(=O)Nc2cccc(C3(C)CCSC(N)=N3)c2)nc1 (stereo not drawn) [Compound 792]	< 100 µM
COc1cnc(C(=O)Nc2cccc(C3(C)CCSC(N)=N3)c2)c(N(C)C)n1 (stereo not drawn) [Compound 214]	< 100 µM
CC1(c2cccc(NC(=O)c3ccc(F)nc3)c2)CCSC(N)=N1 (stereo not drawn) [Compound 850]	< 100 µM
Cc1ccc(C(=O)Nc2cccc(C3(C)CCSC(N)=N3)c2)c(C)c1 (stereo not drawn) [Compound 12]	< 100 µM
COc1ccc(NC(=O)CCc2cccc(C3(C)CCSC(N)=N3)c2)cc1 (stereo not drawn) [Compound 1039]	< 100 µM
CC1(c2ccc(F)c(NC(=O)c3ccccn3)c2)CCSC(N)=N1 (stereo not drawn) [Compound 637]	< 100 µM
CC(=O)c1ccc(C(=O)Nc2cccc(C3(C)CCSC(N)=N3)c2)cc1 (stereo not drawn) [Compound 314]	< 100 µM
CC1(c2cccc(NC(=O)/C=C/c3ccccn3)c2)CCSC(N)=N1 (stereo not drawn) [Compound 1237]	< 100 µM
CC1(c2cc(Br)cc(NC(=O)c3ccc(Cl)cc3)c2)CCSC(N)=N1 (stereo not drawn) [Compound 463]	< 100 µM

SMILES	IC50
CC1(c2cccc(NC(=O)c3cccc(Br)c3)c2)CCSC(N)=N1 (stereo not drawn) [Compound 273]	< 100 µM
CC1(c2cccc(NC(=O)c3ccccc3C#N)c2)CCSC(N)=N1 (stereo not drawn) [Compound 711]	< 100 µM
CC1(c2cccc(NC(=O)CCNC(=O)c3ccc(C(F)(F)F)cn3)c2)CCSC(N)=N1 (stereo not drawn) [Compound 1020]	< 100 µM
CCOc1cc(Cl)cnc1C(=O)Nc1cccc(C2(C)CCSC(N)=N2)c1 (stereo not drawn) [Compound 532]	< 100 µM
CC1(c2cccc(NC(=O)c3ccc(OC(F)(F)F)cc3)c2)CCSC(N)=N1 (stereo not drawn) [Compound 175]	< 100 µM
CC1(c2cccc(Nc3nc4ccccc4[nH]3)c2)CCSC(N)=N1 (stereo not drawn) [Compound 681]	< 100 µM
CC1(c2cccc(NC(=O)c3ccc(N)cn3)c2)CCSC(N)=N1 (stereo not drawn) [Compound 279]	< 100 µM
CC1(c2cccc(OCC(=O)Nc3ccc(Cl)c4ccccc34)c2)CCSC(N)=N1 (stereo not drawn) [Compound 723]	< 100 µM
CC1(c2cccc(NC(=O)c3cnc(N4CCOCC4)cn3)c2)CCSC(N)=N1 (stereo not drawn) [Compound 1264]	< 100 µM
CC1(c2cccc(CNc3ccccn3)c2)CCSC(N)=N1 (stereo not drawn) [Compound 281]	< 100 µM
CC1(c2cc(NC(=O)c3ccc(F)cn3)cc(S(C)(=O)=O)c2)CCSC(N)=N1 (stereo not drawn) [Compound 836]	< 100 µM
CC1(c2cccc(NC(=O)c3ncccc3C(=O)c3ccccc3)c2)CCSC(N)=N1 (stereo not drawn) [Compound 1013]	< 100 µM
CC1(c2ccc(F)c(NC(=O)c3ccccc3C(F)(F)F)c2)CCSC(N)=N1 (stereo not drawn) [Compound 345]	< 100 µM
CC1(c2cccc(NC(=O)c3ccco3)c2)CCSC(N)=N1 (stereo not drawn) [Compound 335]	< 100 µM
CC1(c2cccc(NC(=O)/C=C/c3ccccc3)c2)CCSC(N)=N1 (stereo not drawn) [Compound 1258]	< 100 µM
CC1(c2cccc(C(=O)Nc3nc4ccccc4s3)c2)CCSC(N)=N1 (stereo not drawn) [Compound 708]	< 100 µM
CC1(c2cccc(C(=O)Nc3ccc(Cl)cn3)c2)CCSC(NC(=N)N)=N1 (stereo not drawn) [Compound 189]	< 100 µM
CC1(c2cccc(NC(=S)Nc3ccc(Cl)cc3)c2)CCSC(N)=N1 (stereo not drawn) [Compound 406]	< 100 µM
Cc1cccnc1C(=O)Nc1cccc(C2(C)CCSC(N)=N2)c1 (stereo not drawn) [Compound 240]	< 100 µM
COc1ccc(C(=O)Nc2cccc(C3(C)CCSC(N)=N3)c2)cc1 (stereo not drawn) [Compound 300]	< 100 µM
CC1(c2cccc(C(=O)Nc3nccs3)c2)CCSC(N)=N1 (stereo not drawn) [Compound 1256]	< 100 µM
CC1(c2cccc(NC(=O)c3cccc(Cl)n3)c2)CCSC(N)=N1 (stereo not drawn) [Compound 298]	< 100 µM
CC1(c2cc(NC(=O)c3ccc(Cl)cc3)ccc2F)CCSC(N)=N1 (stereo not drawn) [Compound 31]	< 100 µM

Same assay, conditions: recombinant human BACE-1 protein, 3 h at 30° C., pH5.0; read-out: IC50 value

SMILES	IC50
CC1(c2cc(Cl)cc(NC(=O)c3cc4ccccc4s3)c2)CCSC(N)=N1 (stereo not drawn) [Compound 832]	0.222 µM
C[C@@H](NC(=O)c1ccc(C2(C)CCSC(N)=N2)s1)c1ccccc1 (stereo partly drawn) [Compound 52]	10 µM
COCc1cc(NC(=O)c2ccco2)cc(C2(C)CCSC(N)=N2)c1 (stereo not drawn) [Compound 176]	1.48 µM
CC1(c2cccc(OCC(=O)Nc3ccc(F)cc3)c2)CCSC(N)=N1 (stereo not drawn) [Compound 1186]	5.7 µM
CC1(c2cc(Cl)cc(NC(=O)c3ccc(Cl)cn3)c2)CCSC(N)=N1 (stereo not drawn) [Compound 739]	0.049 µM
COCc1cc(NC(=O)c2ccc(C(F)(F)F)cc2)cc(C2(C)CCSC(N)=N2)c1 (stereo not drawn) [Compound 660]	4.59 µM
CC1(c2cc(Cl)cc(NC(=O)c3ccc(Br)cc3)c2)CCSC(N)=N1 (stereo not drawn) [Compound 698]	0.165 µM
COCc1cc(NC(=O)c2ccc(OC(F)(F)F)cc2)cc(C2(C)CCSC(N)=N2)c1 (stereo not drawn) [Compound 664]	3.64 µM
